Measurements reported in patent US20180110784A1, “SYNTHETIC TLR4 AND TLR7 LIGANDS TO PREVENT, INHIBIT OR TREAT LIVER DISEASE” (The Regents of the University of California, priority 2015, published 2018).
Read-outs that look alike come from different tables or passages of the source.

What was measured:
Assay type in all cases: cell-based
[1] = biological target: T1, TLR4 (Mus musculus, UniProt Q9JHF9+Q9QUK6); experiment: TLR4 activity, mouse
T1 sequence (Q9QUK6 26-835): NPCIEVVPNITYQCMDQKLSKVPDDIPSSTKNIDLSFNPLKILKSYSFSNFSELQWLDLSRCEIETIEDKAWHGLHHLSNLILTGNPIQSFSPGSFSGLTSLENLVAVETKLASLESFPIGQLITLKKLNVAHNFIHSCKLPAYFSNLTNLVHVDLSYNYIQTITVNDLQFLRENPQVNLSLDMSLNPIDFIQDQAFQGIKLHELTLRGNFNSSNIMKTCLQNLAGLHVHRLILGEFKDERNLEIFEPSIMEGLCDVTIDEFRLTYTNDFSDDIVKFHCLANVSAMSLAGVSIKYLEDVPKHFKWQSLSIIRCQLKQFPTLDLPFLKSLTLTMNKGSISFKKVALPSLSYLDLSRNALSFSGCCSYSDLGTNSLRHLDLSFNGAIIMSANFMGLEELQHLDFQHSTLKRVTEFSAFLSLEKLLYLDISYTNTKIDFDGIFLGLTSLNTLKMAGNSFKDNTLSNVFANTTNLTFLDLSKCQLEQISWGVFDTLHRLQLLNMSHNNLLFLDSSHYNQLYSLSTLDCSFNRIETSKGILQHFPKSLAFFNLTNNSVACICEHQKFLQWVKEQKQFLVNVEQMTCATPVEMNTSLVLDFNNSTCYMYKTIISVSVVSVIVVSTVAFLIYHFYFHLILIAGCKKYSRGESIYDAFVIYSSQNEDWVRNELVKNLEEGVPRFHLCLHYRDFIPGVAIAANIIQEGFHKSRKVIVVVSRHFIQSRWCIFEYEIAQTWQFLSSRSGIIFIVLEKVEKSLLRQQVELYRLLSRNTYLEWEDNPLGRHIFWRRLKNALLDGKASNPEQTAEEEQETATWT
T1 sequence (Q9JHF9 19-160): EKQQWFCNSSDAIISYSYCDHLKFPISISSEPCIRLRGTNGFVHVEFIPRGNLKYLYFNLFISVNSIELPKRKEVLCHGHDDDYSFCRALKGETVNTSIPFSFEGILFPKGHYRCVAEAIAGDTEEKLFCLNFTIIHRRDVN

[2] = system: IL-8; experiment: IL-8 activity of TLR4 ligands, human; parameters: unit not given here
[3] = biological target: TLR4 (Homo sapiens, UniProt O00206+Q9Y6Y9); experiment: TLR4 activity, human
Sequence of TLR4 (Homo sapiens, UniProt O00206+Q9Y6Y9) (O00206 24-839): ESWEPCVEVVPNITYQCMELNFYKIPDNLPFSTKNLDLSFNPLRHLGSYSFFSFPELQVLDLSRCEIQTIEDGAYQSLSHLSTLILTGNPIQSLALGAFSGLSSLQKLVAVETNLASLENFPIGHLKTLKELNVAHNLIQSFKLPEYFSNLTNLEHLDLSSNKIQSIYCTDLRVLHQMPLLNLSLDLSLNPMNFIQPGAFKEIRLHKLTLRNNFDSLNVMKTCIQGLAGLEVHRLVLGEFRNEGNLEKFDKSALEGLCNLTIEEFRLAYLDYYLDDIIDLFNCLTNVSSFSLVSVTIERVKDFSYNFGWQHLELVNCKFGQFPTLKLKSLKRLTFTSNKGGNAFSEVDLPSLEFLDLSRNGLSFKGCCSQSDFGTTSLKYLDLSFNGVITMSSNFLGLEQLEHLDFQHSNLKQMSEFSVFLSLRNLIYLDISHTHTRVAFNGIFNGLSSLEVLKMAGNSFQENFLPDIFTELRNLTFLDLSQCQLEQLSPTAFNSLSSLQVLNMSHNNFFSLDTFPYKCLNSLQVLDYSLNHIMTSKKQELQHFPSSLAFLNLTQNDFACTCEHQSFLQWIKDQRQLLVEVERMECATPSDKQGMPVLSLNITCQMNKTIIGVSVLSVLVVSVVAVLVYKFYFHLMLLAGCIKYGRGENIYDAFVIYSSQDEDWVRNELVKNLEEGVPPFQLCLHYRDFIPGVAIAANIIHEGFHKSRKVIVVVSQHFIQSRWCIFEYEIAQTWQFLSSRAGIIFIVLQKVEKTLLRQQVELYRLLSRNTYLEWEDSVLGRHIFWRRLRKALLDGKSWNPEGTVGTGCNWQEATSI
Sequence of TLR4 (Homo sapiens, UniProt O00206+Q9Y6Y9) (Q9Y6Y9 17-160 limits assumed): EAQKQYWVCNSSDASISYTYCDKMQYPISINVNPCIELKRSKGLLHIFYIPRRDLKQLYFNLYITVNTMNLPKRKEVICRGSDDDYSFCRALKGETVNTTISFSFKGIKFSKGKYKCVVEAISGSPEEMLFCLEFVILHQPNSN

[4] = system: IP-10; experiment: IP-10 activity of TLR4 ligands, mouse
[5] = system: IL-6; experiment: IL-6 activity of TLR4 ligands, mouse; parameters: unit not given here
[6] = system: TLR9 signaling; experiment: CpG-DNA-induced TLR9 signaling-mediated inflammatory response in isolated Kupffer cells; conditions: R848 0.5 μM for 16 hours, then CpG-DNA 5 μg/mL for 4 hours
Procedure: It was examined whether 1Z1 (FIG. 7) inhibits TLR9 signaling, which promotes liver diseases, including non-alcoholic steatohepatitis (NASH) and alcoholic liver disease (ALD). Isolated Kupffer cells were treated with 1Z1 (5 μM) or R848 (0.5 μM) for 16 hours followed by stimulation with CpG-DNA (TLR9 ligand; 5 μg/mL) for 4 hours and inflammatory cytokine expression was then measured. Pretreatment with […], 1Z1, and R848 inhibited production of IL-6, TNFα, IL-1β, CCL5, CXCL1, and CXCL2 in Kupffer cells following CpG-DNA treatment (FIG. 18).

Structure (SMILES)	mouse TLR4 [1]	human IL-8 [2]	human TLR4 [3]	mouse IP-10 [4]	mouse IL-6 [5]	mouse TLR4 ([1]; mouse)	human TLR4 ([3]; human)	production of IL-6, TNFα, IL-1β, CCL5, CXCL1, and CXCL2 following CpG-DNA treatment [6]
CCCCNC(=O)CSc1nc2c([nH]c3ccccc32)c(=O)n1-c1ccccc1 [Compound 23]	31	29	32	61	49			
O=C(CSc1nc2c([nH]c3ccccc32)c(=O)n1-c1ccccc1)NC1CCNCC1 [Compound 34]		17		<1	<1	<1	<1	
CN(C(=O)CSc1nc2c3ccccc3n(C)c2c(=O)n1-c1ccccc1)C1CCCCC1 [Compound 43]		5		<1	<1	1	<1	
COC(=O)CCCn1c2ccccc2c2nc(SCC(=O)NC3CCCCC3)n(-c3ccccc3)c(=O)c21 [Compound 44]		124		19	4	9	19	
CCOCc1nc2c(N)nc3ccccc3c2n1CC(C)(C)O [Compound R848]								inhibited
